Source: US11827628B2, “Compositions and methods for inhibition of the JAK pathway” (Rigel Pharmaceuticals, Inc., priority 2005, dated 2023)
pIC50: −log10 of the molar value.

Tested on: Primary human T-cells
Experiment: Primary Human T-Cell Proliferation Assay Stimulated with IL-2 (CellTiter-Glo)
Assay type: cell-based
Conditions: primary human T-cell proliferation stimulated with IL-2; read-out: IC50, Example 42
How it was run: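 IC50 derived from CellTiter-Glo ATP signal after 72 hours of IL-2-driven proliferation at 37° C. Cells: primary human T-cells from blood, stimulated beforehand 3-4 days on anti-CD3/anti-CD28 with IL-2, then rested from IL-2 before compound exposure in duplicate; IL-2-free wells served as unstimulated control.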

COc1cc(Nc2ncc(F)c(Nc3ccc(OCC#N)cc3)n2)ccc1S(N)(=O)=O [Compound I-28, N2-(4-Aminosulfonyl-3-methoxyphenyl)-N4-(4-cyanomethoxy)phenyl-5-fluoro-2,4-pyrimidinediamine]
pIC50: 6.25

Cc1cc(Nc2nc(Nc3cccc(S(N)(=O)=O)c3)ncc2F)ccc1OCC#N [Compound I-23, N2-(3-Aminosulfonyl)phenyl-N4-(4-cyanomethoxy-3-methyl)phenyl-5-fluoro-2,4-pyrimidinediamine]
pIC50: 7.05

Cc1nc(COc2ccc(Nc3nc(Nc4ccc(S(N)(=O)=O)cc4)ncc3F)cc2)no1 [Compound I-275, N2-(4-Aminosulfonyl)phenyl-5-fluoro-N4-[4-(5-methyl-1,2,4-oxadiazol-3-yl)methoxy]phenyl-2,4-pyrimidinediamine]
pIC50: 6.24

Cc1cc(COc2ccc(Nc3nc(Nc4ccc(C)c(S(N)(=O)=O)c4)ncc3F)cc2F)no1 [Compound I-222, N2-(3-Aminosulfonyl-4-methylphenyl)-5-fluoro-N4-[3-fluoro-4-(5-methylisoxazol-3-yl)methyleneoxyphenyl]-2,4-pyrimidinediamine]
pIC50: 6.23

CNS(=O)(=O)c1cc(Nc2ncc(F)c(Nc3ccc(CC#N)cc3)n2)ccc1C [III-1, 5-Fluoro-N2-[3-(N-methylaminosulfony)-4-methylphenyl]-5-fluoro-N4-(4-cyanomethylphenyl)-2,4-pyrimidinediamine]
pIC50: 6.26

CCN(CC)CCNS(=O)(=O)c1ccc(Nc2ncc(F)c(Nc3ccc(OCc4csc(C)n4)cc3)n2)cc1 [Compound I-284, N2-[4-(2-N,N-Diethylaminoethyl)aminosulfonylphenyl)-5-fluoro-N4-[4-(2-methylthizol-4-yl)methyleneoxyphenyl]-2,4-pyrimidinediamine]
pIC50: 6.38

Cc1nc(COc2ccc(Nc3nc(Nc4ccc(C)c(S(N)(=O)=O)c4)ncc3F)cc2)cs1 [Compound I-280, N2-(3-Aminosulfonyl-4-methylphenyl)-5-fluoro-N4-[4-(2-methylthiazol-4-yl)methyleneoxyphenyl]-2,4-pyrimidinediamine]
pIC50: 6.01

Cc1ccc(Nc2ncc(F)c(Nc3ccc(OC4CCCN(C)C4)cc3)n2)cc1S(N)(=O)=O (racemic) [II-4, Racemic N2-(3-aminosulfonyl-4-methylphenyl)-5-fluoro-N4-{4-[(1-methylpiperidin-3-yl)oxy]phenyl}-2,4-pyrimidinediamine]
pIC50: 5.63

Cc1nc(COc2ccc(Nc3nc(Nc4ccc(S(N)(=O)=O)cc4)ncc3F)cc2)cs1 [Compound I-285, N2-(4-Aminosulfonylphenyl)-5-fluoro-N4-[4-(2-methylthiazol-4-yl)methyleneoxyphenyl]-2,4-pyrimidinediamine]
pIC50: 6.50

Cc1ccc(Nc2ncc(F)c(Nc3ccc(OC4CCN(C)C4)cc3)n2)cc1S(N)(=O)=O (stereo not shown) [II-10, N2-(3-Aminosulfonyl-4-methylphenyl)-5-fluoro-N4-(N-methylpyrrolidin-3-yloxyphenyl)-2,4-pyrimidinediamine]
pIC50: 6.06

CCN(CC)CCNS(=O)(=O)c1ccc(Nc2ncc(F)c(Nc3ccc(CC#N)cc3)n2)cc1 [III-2, N2-[4-(2-N,N-Diethylaminoethyl)aminosulfonylphenyl)-5-fluoro-N4-(4-cyanomethylphenyl)-2,4-pyrimidinediamine]
pIC50: 5.46

Cc1cc(COc2ccc(Nc3nc(Nc4cccc(S(=O)(=O)N(Cc5oc(=O)oc5C)Cc5oc(=O)oc5C)c4)ncc3F)cc2)no1 [Compound I-248, N2-{3-[N-N-Di-[(5-Methyl-1,3-dioxolene-2-one-4-yl)methylene]]aminosulfonylphenyl}-5-fluoro-N4-[4-(5-methylisoxazol-3-yl)methyleneoxyphenyl]-2,4-pyrimidinediamine]
pIC50: 6.86

Cc1cc(COc2ccc(Nc3nc(Nc4cccc(S(N)(=O)=O)c4)ncc3F)cc2C)no1 [Compound I-238, N2-(3-Aminosulfonylphenyl)-5-fluoro-N4-[3-methyl-4-(5-methylisoxazol-3-yl)methyleneoxyphenyl]-2,4-pyrimidinediamine]
pIC50: 6.34
